The values below come from US20130143929A1, “FUNGICIDAL IMIDAZOLES” (EI DU PONT DE NEMOURS AND COMPANY, priority 2010, published 2013).

Marks after values point to notes of the source that are not given here.

Holding throughout (type): in vivo
Test [1] deals with Botrytis cinerea (the causal agent of tomato Botrytis). The experiment in a line: Test C: tomato Botrytis, preventive spray on tomato seedlings, visual disease rating. The settings on record: tomato Botrytis, preventive spray on tomato seedlings. Summed up: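 Test suspension (acetone/water with 250 ppm Trem 014; 200 ppm equivalent to 800 g/ha) sprayed to run-off on tomato seedlings; B. cinerea spores inoculated next day. After 48 h saturated humidity at 20° C then 3 days at 24° C, disease rated visually as % control relative to untreated controls (0–100).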

The test system of test [2] is Puccinia recondite f. sp. tritici (the causal agent of wheat leaf rust). The experiment in a line: Test A: wheat leaf rust, preventive spray on wheat seedlings, visual disease rating. The settings on record: wheat leaf rust, preventive spray on wheat seedlings. An outline of the steps: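 Wheat seedlings were sprayed to run-off with compound suspended in acetone/water containing 250 ppm Trem 014 (200 ppm ≈ 800 g/ha; some at 40 ppm). Puccinia recondite spores were inoculated the next day. Plants were held 24 h saturated at 20° C, then 7 days at 20° C, and disease control was rated visually on a 0–100 scale against controls.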

Test [3] relates to Blumeria graminis f. sp. tritici (also known as Erysiphe graminis f. sp. tritici, the causal agent of wheat powdery mildew). The test can be described thus: Test D: wheat powdery mildew, preventive spray on wheat seedlings, visual disease rating. The conditions noted are these: wheat powdery mildew, preventive spray on wheat seedlings. An outline of the steps: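 Compound suspended in acetone/water (50/50) with 250 ppm Trem 014 and sprayed to run-off on wheat seedlings (200 ppm ≈ 800 g/ha), then inoculated next day with spore dust. Disease rated visually after 8 days at 20 °C as % control relative to untreated plants (0-100).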

In test [4] the test system is Septoria tritici (the causal agent of wheat leaf blotch). The experiment in a line: Test B: wheat leaf blotch, preventive spray on wheat seedlings, visual disease rating. The conditions noted are these: wheat leaf blotch, preventive spray on wheat seedlings. An outline of the steps:
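Wheat seedlings sprayed to run-off with compound suspension (acetone/water with 250 ppm Trem 014; 200 ppm ≈ 800 g/ha, some at 40 ppm), inoculated next day with Septoria tritici spores. 48 h saturated humidity at 24 °C, then 19 days at 20 °C; visual rating, 100 = full control.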

The mark [5] stands for this setting: no asterisk (standard test suspension concentration, not 40 ppm).
Where [6] appears, read: asterisk: 40 ppm test suspension.

On to `Cc1nc(Br)c(C(O)c2ccc(F)cc2Cl)n1-c1c(F)cccc1Br` (stereo not shown) [compound 134], for which the “Test C rating (100 = 100% disease control, 0 = no disease control relative to the controls)” value in test [1] (setting [5]) worked out at 100%. Also, in test [2] (setting [5]), the “Test A rating (100 = 100% disease control, 0 = no disease control relative to the controls)” value turned out to be 100%. For the same molecule, the “Test D rating (100 = 100% disease control, 0 = no disease control relative to the controls)” value in test [3] (setting [5]) worked out at 98%. In test [4] (setting [5]), the “Test B rating (100 = 100% disease control, 0 = no disease control relative to the controls)” value was 100%.
Consider `Cc1nc(Br)c(C(O)c2ccc(F)cc2Cl)n1-c1c(F)cc(F)cc1Br` (stereo not shown) [compound 136], for which, in test [1] (setting [5]), the “Test C rating (100 = 100% disease control, 0 = no disease control relative to the controls)” value turned out to be 100%. For the same molecule, the “Test A rating (100 = 100% disease control, 0 = no disease control relative to the controls)” value in test [2] (setting [5]) was determined as 100%. Besides, the “Test D rating (100 = 100% disease control, 0 = no disease control relative to the controls)” value in test [3] (setting [5]) is listed as 79%. In addition, the “Test B rating (100 = 100% disease control, 0 = no disease control relative to the controls)” value in test [4] (setting [5]) amounted to 100%.
On to `Cc1nc(Cl)c(C(O)c2ccc(F)cc2Cl)n1-c1c(F)cc(F)cc1Br` (stereo not shown) [compound 137], for which the “Test C rating (100 = 100% disease control, 0 = no disease control relative to the controls)” value in test [1] (setting [6]) is reported as 100* %. Also, the “Test A rating (100 = 100% disease control, 0 = no disease control relative to the controls)” value in test [2] (setting [6]) is on record as 100* %. In test [3] (setting [6]), the “Test D rating (100 = 100% disease control, 0 = no disease control relative to the controls)” value is given as 87* %. The “Test B rating (100 = 100% disease control, 0 = no disease control relative to the controls)” value in test [4] (setting [6]) is given as 100* %.
On to `Cc1cc(F)ccc1C(O)c1cnc(C)n1-c1ccc(F)cc1Br` (stereo not shown) [compound 138], for which the “Test C rating (100 = 100% disease control, 0 = no disease control relative to the controls)” value in test [1] (setting [5]) is given as 0%. In test [2] (setting [5]), the “Test A rating (100 = 100% disease control, 0 = no disease control relative to the controls)” value is listed as 89%. The “Test D rating (100 = 100% disease control, 0 = no disease control relative to the controls)” value in test [3] (setting [5]) is listed as 0%. Besides, in test [4] (setting [5]), the “Test B rating (100 = 100% disease control, 0 = no disease control relative to the controls)” value amounted to 28%.
Turning to `Cc1ncc(C(O)c2ccc(Cl)cc2)n1-c1ccc(F)cc1Br` (stereo not shown) [compound 139], the “Test C rating (100 = 100% disease control, 0 = no disease control relative to the controls)” value in test [1] (setting [5]) was found to be 0%. Besides, the “Test A rating (100 = 100% disease control, 0 = no disease control relative to the controls)” value in test [2] (setting [5]) is listed as 86%. In test [3] (setting [5]), the “Test D rating (100 = 100% disease control, 0 = no disease control relative to the controls)” value turned out to be 0%. In test [4] (setting [5]), the “Test B rating (100 = 100% disease control, 0 = no disease control relative to the controls)” value turned out to be 49%.
As for `Cc1nc(Br)c(C(O)c2c(F)cccc2F)n1-c1ccc(F)cc1Cl` (stereo not shown) [compound 140], the “Test C rating (100 = 100% disease control, 0 = no disease control relative to the controls)” value in test [1] (setting [5]) is on record as 100%. Further, the “Test A rating (100 = 100% disease control, 0 = no disease control relative to the controls)” value in test [2] (setting [5]) was 100%. The “Test D rating (100 = 100% disease control, 0 = no disease control relative to the controls)” value in test [3] (setting [5]) stood at 50%. The “Test B rating (100 = 100% disease control, 0 = no disease control relative to the controls)” value in test [4] (setting [5]) turned out to be 100%.
Consider `Cc1nc(Br)c(C(O)c2c(F)cc(F)cc2F)n1-c1ccc(F)cc1Cl` (stereo not shown) [compound 141], for which the “Test C rating (100 = 100% disease control, 0 = no disease control relative to the controls)” value in test [1] (setting [5]) is on record as 99%. The “Test A rating (100 = 100% disease control, 0 = no disease control relative to the controls)” value in test [2] (setting [5]) came to 100%. The “Test D rating (100 = 100% disease control, 0 = no disease control relative to the controls)” value in test [3] (setting [5]) is reported as 96%. For the same molecule, the “Test B rating (100 = 100% disease control, 0 = no disease control relative to the controls)” value in test [4] (setting [5]) was determined as 100%.
For the molecule `Cc1nc(Br)c(C(O)c2ccc(F)cc2Cl)n1-c1ccc(F)cc1Cl` (stereo not shown) [compound 142], in test [1] (setting [5]), the “Test C rating (100 = 100% disease control, 0 = no disease control relative to the controls)” value is given as 99%. Also, in test [2] (setting [5]), the “Test A rating (100 = 100% disease control, 0 = no disease control relative to the controls)” value was 100%. Besides, the “Test D rating (100 = 100% disease control, 0 = no disease control relative to the controls)” value in test [3] (setting [5]) was found to be 71%. In test [4] (setting [5]), the “Test B rating (100 = 100% disease control, 0 = no disease control relative to the controls)” value is on record as 100%.
For `COc1ccc(C(O)c2c(Cl)nc(C)n2-c2c(F)cccc2F)c(Cl)c1` (stereo not shown) [compound 143], in test [1] (setting [6]), the “Test C rating (100 = 100% disease control, 0 = no disease control relative to the controls)” value is recorded as 99* %. The “Test A rating (100 = 100% disease control, 0 = no disease control relative to the controls)” value in test [2] (setting [6]) is recorded as 100* %. In addition, the “Test D rating (100 = 100% disease control, 0 = no disease control relative to the controls)” value in test [3] (setting [6]) was 99* %. Also, the “Test B rating (100 = 100% disease control, 0 = no disease control relative to the controls)” value in test [4] (setting [6]) is on record as 100* %.
Consider `COc1ccc(C(O)c2c(Br)nc(C)n2-c2c(F)cccc2F)c(Cl)c1` (stereo not shown) [compound 144], for which, in test [1] (setting [6]), the “Test C rating (100 = 100% disease control, 0 = no disease control relative to the controls)” value is given as 100* %. Also, in test [2] (setting [6]), the “Test A rating (100 = 100% disease control, 0 = no disease control relative to the controls)” value was 100* %. The “Test D rating (100 = 100% disease control, 0 = no disease control relative to the controls)” value in test [3] (setting [6]) is 99* %. Also, the “Test B rating (100 = 100% disease control, 0 = no disease control relative to the controls)” value in test [4] (setting [6]) is 100* %.
